Drawing on ChEMBL document CHEMBL4020729, “Synthesis and evaluation of anti-plasmodial and cytotoxic activities of epoxyazadiradione derivatives” (Eur J Med Chem, 2017), this text covers IC50 and Activity for 13 compounds.

In one assay the test system is PANC-1. As to the kind of experiment: Antiproliferative activity against human PANC1 cells after 48 hrs by SRB assay. Format: functional, cell-based. The conditions noted are these: PANC-1, 48 h. On the technique in general: The SRB assay estimates cell density from bound dye.
Assay [1] relates to Plasmodium falciparum. Kind of assay: Anti-plasmodial activity against chloroquine-resistant Plasmodium falciparum Dd2 infected in human erythrocytes after 50 hrs by SYBR green dye based fluorescence assay. Format: functional, cell-based. The conditions noted are these: Dd2, 50 h.
The test system of another assay is MDA-MB-231. Kind of assay: Antiproliferative activity against human MDA-MB-231 cells after 48 hrs by SRB assay. It is filed as functional, cell-based. The conditions noted are these: MDA-MB-231, 48 h.
Assay [2] concerns Plasmodium falciparum. Kind of assay: Anti-plasmodial activity against chloroquine-sensitive Plasmodium falciparum 3D7 infected in human erythrocytes after 50 hrs by SYBR green dye based fluorescence assay. Format: functional, cell-based. The conditions noted are these: 3D7, 50 h.
In the next assay the test system is SiHa. Kind of assay: Antiproliferative activity against human SiHa cells after 48 hrs by SRB assay. It is filed as functional, cell-based.
The next assay deals with IMR-32. As to the kind of experiment: Antiproliferative activity against human IMR32 cells after 48 hrs by SRB assay. It is filed as functional, cell-based. Conditions: IMR-32, 48 h.
The next assay deals with Plasmodium berghei. As to the kind of experiment: Anti-plasmodial activity against Plasmodium berghei ANKA infected in BALB/c mouse at 50 mg/kg, ip assessed as reduction in parasitemia administered once per day for 4 days by Giemsa staining based light microscopic assay. It is filed as functional, organism-based.

Molecules are shown by their SMILES. Calls of active or inactive are those of the source. The calls are words filed in the database; no cut-off is given here.

As usually defined, the IC50 is the point on the concentration scale where inhibition reaches its midpoint. In the case of `CC(=O)O[C@@H]1C[C@H]2C(C)(C)C(=O)C=C[C@]2(C)[C@H]2CC[C@@]3(C)[C@H](c4ccoc4)/C(=N\OCc4cn(-c5ccc(Cl)c([N+](=O)[O-])c5)nn4)[C@H]4O[C@]43[C@@]21C`, the IC50 in the assay with PANC-1 was greater than 100 µM; in the assay with Plasmodium falciparum [1] it was 1.3 µM; in the assay with MDA-MB-231, greater than 100 µM; in the assay on Plasmodium falciparum [2] it was 2.8 µM; in the assay on SiHa it was greater than 100 µM; in the assay on IMR-32, greater than 100 µM.
On to `CC(=O)O[C@@H]1C[C@H]2C(C)(C)C(=O)C=C[C@]2(C)[C@H]2CC[C@@]3(C)[C@H](c4ccoc4)/C(=N\OCc4cn(CC(=O)Nc5ccc(C)cc5)nn4)[C@H]4O[C@]43[C@@]21C`, for which the IC50 is greater than 100 µM with PANC-1; 24 µM with Plasmodium falciparum [1]; greater than 100 µM with MDA-MB-231; 31 µM in the assay on Plasmodium falciparum [2]; greater than 100 µM with SiHa; greater than 100 µM in the assay with IMR-32.
As for `CC1(C)C(=O)C=C[C@]2(C)[C@H]3CC[C@@]4(C)[C@H](c5ccoc5)C(=O)[C@H]5O[C@]54[C@]3(C)C(=O)C[C@@H]12`, the IC50 is greater than 100 µM with PANC-1; 20 µM with Plasmodium falciparum [1]; 18 µM in the assay on MDA-MB-231; 12.9 µM in the assay with Plasmodium falciparum [2]; greater than 100 µM in the assay with SiHa; greater than 100 µM in the assay with IMR-32.
Consider `C#CCO/N=C1/[C@H]2O[C@]23[C@@]2(C)[C@H](CC[C@@]3(C)[C@@H]1c1ccoc1)[C@@]1(C)C=CC(=O)C(C)(C)[C@@H]1C[C@H]2OC(C)=O`, for which the IC50 with PANC-1 is greater than 100 µM; in the assay with Plasmodium falciparum [1] it was 8.4 µM; in the assay with MDA-MB-231, greater than 100 µM; in the assay on Plasmodium falciparum [2], 7 µM; in the assay with SiHa it was greater than 100 µM; in the assay on IMR-32, greater than 100 µM.
On to `CCN1CCN(CC(=O)O[C@@H]2C[C@H]3C(C)(C)C(=O)C=C[C@]3(C)[C@H]3CC[C@@]4(C)[C@H](c5ccoc5)C(=O)[C@H]5O[C@]54[C@@]32C)CC1`, for which the IC50 in the assay with PANC-1 is greater than 100 µM; in the assay with Plasmodium falciparum [1], 6 µM; in the assay on MDA-MB-231, greater than 100 µM; with Plasmodium falciparum [2], 8.6 µM; in the assay on SiHa it was greater than 100 µM; with IMR-32 it was greater than 100 µM.
Turning to `CC(=O)O[C@@H]1C[C@H]2C(C)(C)C(=O)C=C[C@]2(C)[C@H]2CC[C@@]3(C)[C@H](c4ccoc4)/C(=N\OCc4cn(CC(=O)Nc5ccc(I)c(Cl)c5)nn4)[C@H]4O[C@]43[C@@]21C`, the IC50 in the assay with PANC-1 is greater than 100 µM; with Plasmodium falciparum [1], 87 µM; in the assay on MDA-MB-231 it was greater than 100 µM; in the assay on Plasmodium falciparum [2], 53.2 µM; with SiHa, greater than 100 µM; with IMR-32, greater than 100 µM.
For `CC1(C)C(=O)C=C[C@]2(C)[C@H]3CC[C@@]4(C)[C@H](c5ccoc5)C(=O)[C@H]5O[C@]54[C@]3(C)[C@H](OC(=O)c3ccc(F)c(Br)c3)C[C@@H]12`, the IC50 is greater than 100 µM with PANC-1; 5.5 µM in the assay with Plasmodium falciparum [1]; greater than 100 µM with MDA-MB-231; 6 µM with Plasmodium falciparum [2]; greater than 100 µM in the assay with SiHa; greater than 100 µM in the assay on IMR-32.
In the case of `CC(=O)O[C@@H]1C[C@H]2C(C)(C)C(=O)C=C[C@]2(C)[C@H]2CC[C@@]3(C)[C@H](c4ccoc4)/C(=N\OCc4cn(CC(=O)Nc5ccccc5)nn4)[C@H]4O[C@]43[C@@]21C`, the half-maximal inhibitory concentration (IC50) in the assay with PANC-1 was 25.4 µM; with Plasmodium falciparum [1], 8.3 µM; in the assay with MDA-MB-231, greater than 100 µM; with Plasmodium falciparum [2], 13.8 µM; in the assay on SiHa it was greater than 100 µM; with IMR-32 it was greater than 100 µM.
For the compound `CC(=O)O[C@@H]1C[C@H]2C(C)(C)C(=O)C=C[C@]2(C)[C@H]2CC[C@@]3(C)[C@H](c4ccoc4)C(=O)[C@H]4O[C@]43[C@@]21C` [EPOXYAZADIRADIONE], the IC50 is greater than 100 µM in the assay with PANC-1; 2.9 µM in the assay with Plasmodium falciparum [1]; greater than 100 µM with MDA-MB-231; 2.9 µM in the assay with Plasmodium falciparum [2]; greater than 100 µM with SiHa; greater than 100 µM with IMR-32.
Take `CC(=O)O[C@@H]1C[C@H]2C(C)(C)C(=O)C=C[C@]2(C)[C@H]2CC[C@@]3(C)[C@H](c4ccoc4)/C(=N\O)[C@H]4O[C@]43[C@@]21C`: the IC50 is greater than 100 µM in the assay on PANC-1; 2.2 µM in the assay with Plasmodium falciparum [1]; greater than 100 µM in the assay with MDA-MB-231; 7.7 µM with Plasmodium falciparum [2]; greater than 100 µM in the assay with SiHa; greater than 100 µM with IMR-32.
Regarding `CC(=O)O[C@@H]1C[C@H]2C(C)(C)C(=O)C=C[C@]2(C)[C@H]2CC[C@@]3(C)[C@H](c4ccoc4)/C(=N\OCc4cn(-c5cc([N+](=O)[O-])ccc5Cl)nn4)[C@H]4O[C@]43[C@@]21C`, the IC50 in the assay with PANC-1 is greater than 100 µM; in the assay with Plasmodium falciparum [1], 3.8 µM; in the assay on MDA-MB-231 it was greater than 100 µM; in the assay with Plasmodium falciparum [2] it was 5.1 µM; with SiHa, greater than 100 µM; with IMR-32, greater than 100 µM.
With `CC(=O)O[C@@H]1C[C@H]2C(C)(C)C(=O)C=C[C@]2(C)[C@H]2CC[C@@]3(C)[C@H](c4ccoc4)/C(=N\OCc4cn(-c5ccc(C(C)=O)cc5)nn4)[C@H]4O[C@]43[C@@]21C`, the IC50 is greater than 100 µM in the assay with PANC-1; 2.3 µM with Plasmodium falciparum [1]; greater than 100 µM in the assay on MDA-MB-231; 3.1 µM in the assay with Plasmodium falciparum [2]; greater than 100 µM with SiHa; greater than 100 µM in the assay with IMR-32.
Take `COc1cc(-n2cc(CO/N=C3/[C@H]4O[C@]45[C@@]4(C)[C@H](CC[C@@]5(C)[C@@H]3c3ccoc3)[C@@]3(C)C=CC(=O)C(C)(C)[C@@H]3C[C@H]4OC(C)=O)nn2)c(OC)cc1Cl`: the IC50 was 35.1 µM in the assay with PANC-1; 1.2 µM in the assay with Plasmodium falciparum [1]; greater than 100 µM in the assay on MDA-MB-231; 1.5 µM in the assay with Plasmodium falciparum [2]; greater than 100 µM in the assay on SiHa; greater than 100 µM in the assay with IMR-32. Further, in the assay on Plasmodium berghei, the result was inactive.
